What was measured:
[1] = test system: Human immunodeficiency virus 1; experiment: microbe, parasite or virus in culture; settings: Human immunodeficiency virus 1, Ba-L
Description: Antiviral activity against R5 tropic HIV1 Ba-L infected PBMC assessed as inhibition of viral p24 antigen expression

[2] = molecular target: C-C chemokine receptor type 5 (Homo sapiens, UniProt P51681); experiment: Antagonist activity at human CCR5 expressed in CHO cells assessed as inhibition of MIP-1alpha-induced calcium mobilization; assay type: functional, cell-based
Liver microsomes [3] = experiment: Metabolic stability in rat liver microsomes assessed as compound remaining after 15 mins; assay type: ADME, Microsome; settings: 0.25 h
Liver microsomes [4] = experiment: Metabolic stability in human liver microsomes assessed as compound remaining after 15 mins; assay type: ADME, Microsome; settings: 0.25 h
[5] = Half life in rat at 3 mg/kg, iv; assay type: ADME, organism-based; design: dose 3 mg/kg, route intravenous; settings: in vivo
[6] = AUC in rat at 3 mg/kg, iv; assay type: ADME, organism-based; design: dose 3 mg/kg, route intravenous; settings: plasma
[7] = Half life in rat at 10 mg/kg, po; assay type: ADME, organism-based; design: dose 10 mg/kg, route oral; settings: in vivo
[8] = Clearance in rat at 3 mg/kg, iv; assay type: ADME, organism-based; design: dose 3 mg/kg, route intravenous; settings: in vivo
Rattus norvegicus [9] = experiment: Dose normalized Cmax in rat at 10 mg/kg, po; assay type: ADME, organism-based; design: dose 10 mg/kg, route oral; settings: in vivo
Rattus norvegicus [10] = experiment: Dose normalized AUC in rat at 10 mg/kg, po; assay type: ADME, organism-based; design: dose 10 mg/kg, route oral; settings: in vivo
[11] = Bioavailability in rat at 10 mg/kg, po; assay type: ADME, organism-based; settings: in vivo
[12] = Cmax in rat at 10 mg/kg, po; assay type: ADME, organism-based; design: dose 10 mg/kg, route oral; settings: in vivo

Chain of C-C chemokine receptor type 5 (P51681 whole entry): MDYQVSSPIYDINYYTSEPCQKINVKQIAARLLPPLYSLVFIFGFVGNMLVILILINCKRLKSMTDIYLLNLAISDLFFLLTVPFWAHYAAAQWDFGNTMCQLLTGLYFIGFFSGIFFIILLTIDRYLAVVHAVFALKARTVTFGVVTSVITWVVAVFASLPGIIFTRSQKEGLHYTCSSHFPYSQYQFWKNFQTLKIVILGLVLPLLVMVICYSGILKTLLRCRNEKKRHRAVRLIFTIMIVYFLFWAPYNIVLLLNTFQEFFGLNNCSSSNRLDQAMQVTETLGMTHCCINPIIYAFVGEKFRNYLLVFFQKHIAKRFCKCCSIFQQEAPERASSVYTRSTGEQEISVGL

For CCCCN1C(=O)[C@H](CC2CCCCC2)NC(=O)C12CCN(Cc1ccc(Oc3ccc(C(=O)O)cc3)cc1)CC2, which IC90 [1] is on record?
Its IC90 is 171 nM.

With CCCCN1C(=O)[C@@H]([C@H](O)C2CCCCC2)NC(=O)C12CCN(Cc1ccc(Oc3ccc(OC)cc3)cc1)CC2 as the molecule, how does the IC50 [2] read?
Its IC50 is 91 nM.

Which Stability (Liver microsomes [3]) does the source give for CCCCN1C(=O)[C@@H]([C@H](O)C2CCCCC2)NC(=O)C12CCN(Cc1ccc(Oc3ccc(O)cc3)cc1)CC2.Cl here?
The Stability was 23%.

What about the IC50 [2] of the same molecule?
The IC50 was 68 nM.

And the Stability (Liver microsomes [4])?
The Stability was 3.5%.

What does the source list for CCCCN1C(=O)[C@@H]([C@H](O)C2CCCCC2)NC(=O)C12CCN(Cc1ccc(Oc3ccc(C(N)=O)cc3)cc1)CC2.Cl?
Stability (Liver microsomes [3]): 19%; IC50 [2]: 39 nM; Stability (Liver microsomes [4]): 1.5%

Which results are given for CCCCN1C(=O)[C@@H]([C@H](O)C2CCCCC2)NC(=O)C12CCN(Cc1ccc(Oc3ccc(C(=O)NC)cc3)cc1)CC2.Cl?
half-life [5]: 0.46 h; AUC [6]: 3780 ng·h/mL; half-life [7]: 1.22 h; IC50 [2]: 38 nM; clearance [8]: 12.8 mL/min/kg; Cmax/dose (Rattus norvegicus [9]): 333 ng/mL; AUC/dose (Rattus norvegicus [10]): 1296 ng·h/mL; bioavailability [11]: 10%

Which IC50 [2] does the source give for CCCCN1C(=O)[C@@H]([C@H](O)C2CCCCC2)NC(=O)C12CCN(Cc1ccc(Oc3ccc(S(N)(=O)=O)cc3)cc1)CC2 here?
The IC50 was 48 nM.

For CCCCN1C(=O)[C@@H]([C@H](O)C2CCCCC2)NC(=O)C12CCN(Cc1ccc(Oc3ccc(S(C)(=O)=O)cc3)cc1)CC2, which IC50 [2] is on record?
Its IC50 is 34 nM.

With CCCCN1C(=O)[C@@H]([C@H](O)C2CCCCC2)NC(=O)C12CCN(Cc1ccc(Oc3ccc(NS(C)(=O)=O)cc3)cc1)CC2.Cl as the molecule, how does the half-life [5] read?
Its half-life is 2.28 h.

And the Stability (Liver microsomes [3])?
The Stability was 91%.

And the AUC [6]?
Its AUC is 1540 ng·h/mL.

What about the half-life [7] of the same molecule?
Its half-life is 3.42 h.

What about the Stability (Liver microsomes [4]) of the same molecule?
Its Stability is 1.8%.

And the clearance [8]?
Its clearance is 25 mL/min/kg.

What about the Cmax/dose (Rattus norvegicus [9]) of the same molecule?
The Cmax/dose was 50 ng/mL.

What about the AUC/dose (Rattus norvegicus [10]) of the same molecule?
The AUC/dose was 242 ng·h/mL.

What about the bioavailability [11] of the same molecule?
Its bioavailability is 5%.

With CCCCN1C(=O)[C@@H]([C@H](O)C(C)C)NC(=O)C12CCN(Cc1ccc(Oc3ccc(C(=O)O)cc3)cc1)CC2.Cl as the molecule, how does the half-life [5] read?
The half-life was 0.22 h.

What about the Stability (Liver microsomes [3]) of the same molecule?
The Stability was 100%.

And the AUC [6]?
The AUC was 2310 ng·h/mL.

And the half-life [7]?
The half-life was 4.5 h.

What about the IC50 [2] of the same molecule?
Its IC50 is 48 nM.

And the Cmax [12]?
The Cmax was 137 ng/mL.

What about the Stability (Liver microsomes [4]) of the same molecule?
Its Stability is 98%.

And the clearance [8]?
Its clearance is 21.2 mL/min/kg.

What about the IC50 [1] of the same molecule?
The IC50 was 59 nM.

What about the IC90 [1] of the same molecule?
The IC90 was 591 nM.

And the bioavailability [11]?
Its bioavailability is 5.9%.

With CCCCN1C(=O)[C@@H]([C@H](O)C2CC2)NC(=O)C12CCN(Cc1ccc(Oc3ccc(C(=O)O)cc3)cc1)CC2.Cl as the molecule, how does the Stability (Liver microsomes [3]) read?
The Stability was 100%.

What about the IC50 [2] of the same molecule?
The IC50 was 81 nM.

And the Stability (Liver microsomes [4])?
Its Stability is 89%.

With CCCCN1C(=O)[C@@H]([C@H](O)C2CCC2)NC(=O)C12CCN(Cc1ccc(Oc3ccc(C(=O)O)cc3)cc1)CC2.Cl as the molecule, how does the Stability (Liver microsomes [3]) read?
The Stability was 100%.

What about the IC50 [2] of the same molecule?
Its IC50 is 25 nM.

What about the Stability (Liver microsomes [4]) of the same molecule?
The Stability was 95%.

Which results are given for CCCCN1C(=O)[C@@H]([C@H](O)C2CCCC2)NC(=O)C12CCN(Cc1ccc(Oc3ccc(C(=O)O)cc3)cc1)CC2.Cl?
Stability (Liver microsomes [3]): 100%; IC50 [2]: 33 nM; Stability (Liver microsomes [4]): 93%

For CCCCN1C(=O)[C@@H]([C@H](O)C2CCCCCC2)NC(=O)C12CCN(Cc1ccc(Oc3ccc(C(=O)O)cc3)cc1)CC2.Cl, which Stability (Liver microsomes [3]) is on record?
Its Stability is 59%.

What about the IC50 [2] of the same molecule?
The IC50 was 32 nM.

And the Stability (Liver microsomes [4])?
Its Stability is 34%.

For CCCCN1C(=O)[C@@H]([C@H](O)C2CCOCC2)NC(=O)C12CCN(Cc1ccc(Oc3ccc(C(=O)O)cc3)cc1)CC2, which IC50 [2] is on record?
The IC50 was 120 nM.

Which Stability (Liver microsomes [3]) does the source give for CCCCN1C(=O)[C@@H]([C@H](O)C2CCC(O)CC2)NC(=O)C12CCN(Cc1ccc(Oc3ccc(C(=O)O)cc3)cc1)CC2.Cl (some centres undefined) here?
Its Stability is 100%.

And the IC50 [2]?
Its IC50 is 140 nM.

And the Stability (Liver microsomes [4])?
Its Stability is 100%.

What does the source list for CCCCN1C(=O)[C@@H]([C@@H](O)C2CCC(O)CC2)NC(=O)C12CCN(Cc1ccc(Oc3ccc(C(=O)O)cc3)cc1)CC2.Cl (some centres undefined)?
Stability (Liver microsomes [3]): 92%; IC50 [2]: 23 nM

With CN1C(=O)[C@@H]([C@H](O)C2CCCCC2)NC(=O)C12CCN(Cc1ccc(Oc3ccc(C(=O)O)cc3)cc1)CC2 as the molecule, how does the IC50 [2] read?
The IC50 was 50 nM.

Which IC50 [2] does the source give for CCN1C(=O)[C@@H]([C@H](O)C2CCCCC2)NC(=O)C12CCN(Cc1ccc(Oc3ccc(C(=O)O)cc3)cc1)CC2 here?
Its IC50 is 23 nM.

With CCN1C(=O)[C@@H]([C@H](O)C2CCCCC2)NC(=O)C12CCN(Cc1ccc(Oc3ccc(C(=O)NC)cc3)cc1)CC2 as the molecule, how does the IC50 [2] read?
The IC50 was 20 nM.

— ChEMBL document CHEMBL1811891 (Bioorg Med Chem, 2011)
